In brackets after ≈: the same amount, converted by molar mass.
Test system: Vaccinia virus
Assay type: functional, organism-based
Settings: Orthopoxvirus vaccinia, Lederle, HEL

Row | Compound | EC50
1 | Nc1ncn(C[C@@H](CO)OCP(=O)(O)O)c(=O)n1 | 2.16 µg/mL (≈ 7.71 µM)
2 | Nc1ncn(C[C@H]2COP(=O)(O)CO2)c(=O)n1 | 2.12 µg/mL (≈ 8.09 µM)
3 | CCCCCCCCCCCCCCCCOCCOP1(=O)CO[C@@H](Cn2cnc(N)nc2=O)CO1 (some centres not stated) | 0.037 µg/mL (≈ 0.0697 µM)
4 | CCCCCCCCCCCCCCCCCCOP1(=O)CO[C@@H](Cn2cnc(N)nc2=O)CO1 (some centres not stated) | 4.45 µg/mL (≈ 8.65 µM)
5 | CC(C)(C)C(=O)OCOP1(=O)CO[C@@H](Cn2cnc(N)nc2=O)CO1 (some centres not stated) | 0.79 µg/mL (≈ 2.1 µM)
6 | Nc1ccn(C[C@@H](CO)OCP(=O)(O)O)c(=O)n1.O.O [CIDOFOVIR] | 3.09 µg/mL
7 | Nc1ccn(C[C@H]2COP(=O)(O)CO2)c(=O)n1 [CYCLIC CIDOFOVIR] | 2.78 µg/mL (≈ 10.6 µM)

Reference: ChEMBL document CHEMBL1138246, “Ester prodrugs of cyclic 1-(S)-[3-hydroxy-2-(phosphonomethoxy)propyl]-5-azacytosine: synthesis and antiviral activity” (J Med Chem, 2007)
